According to patent US20070275464A1, “Chitin Oligosaccharide Elicitor-Binding Proteins” (NATIONAL INSTITUTE OF AGROBIOLOGICAL SCIENCES, priority 2004, published 2007):

Legend:
[1] = test system: CEBiP-RNAi #6 rice cells; experiment: Microarray analysis of elicitor-responsive genes, CEBiP-RNAi #6 cultured rice cells; type: cell-based
From the text: (§1) An oligoarray (Agilent) produced from a rice full-length cDNA database was used for the microarray analyses. For the preparation of Cyanine 3 (Cy3)- and Cyanine 5(Cy5)-labeled cRNAs, RNAs isolated from each of the cultured cells of NT and two kinds of CEBiP-RNAi cultured rice cells treated with (GlcNAc)8 for two hours ((GlcNAc)8-NT, (GlcNAc)8-CEBiP-RNAi #3, and (GlcNAc)8-CEBiP-RNAi #6) as well as of cultured cells treated with water as controls were used. Methods for Cy3- and Cy5-labeling and methods for hybridizing the Cy3- and Cy5-labeled samples with slide glasses onto which 22K rice oligoprobes have been attached were carried out according to the protocol from Agilent. The combinations of hybridization reagents that were used were Cy5-labeled (GlcNAc)8-NT/Cy3-labeled NT; [2] Cy5-labeled (GlcNAc)8-CEBiP-RNAi #3/Cy3-labeled CEBiP-RNAi #3; and [3] Cy5-labeled (GlcNAc)8-CEBiP-RNAi #6/Cy3-labeled CEBiP-RNAi #6. Furthermore, experiments in which the labeling reagents were swapped (the labeled forms were interchanged) were also performed. The obtained results were analyzed at http://tos.nias.affrc.go.jp/cgi-bin/tos17/array.cgi.

[2] = test system: rice protoplasts; experiment: Reactive oxygen production in rice protoplasts, luminol method; type: cell-based, Oryza sativa L. cv. Nipponbare; details: 1 μL of 100 μg/mL (GlcNAc)8, 15 minutes
Experimental: Protoplasts were prepared from cultured rice cells, and the effect of the anti-Con A-CEBiP antibodies on elicitor-responsive reactive oxygen production was examined.
Cultured rice cells were strained through a metal mesh. Four days later, these cells were placed into 14 mL of 0.1% CaCl2, 0.02% MES, 9% Mannitol solution (pH 5.6) containing 2% Cellurase RS (Yakult) and 0.05% Pectolyase Y-23, and then gently shaken at 30° C. for six hours. Cells were filtered through a 25 μm nylon mesh, and the cells on the mesh were washed with 20 mL of Washing buffer (0.1% CaCl2/0.4 M Mannitol) (Nishimura, N., Tanabe, S., He, D.-Y, Yokota, T., Shibuya, N. and Minami, E. Plant Physiol. Biochem., 39, 1105-1110 (2001)). The protoplasts were collected into a 50 mL Falcon tube and recovered by centrifugation at 600 rpm for five minutes. […]
25 μL of the reacted solution, 400 μL of 50 mM potassium phosphate buffer (pH 7.9), 25 μL of 1.1 mM luminol, and 50 μL of 14 mM potassium ferricyanide were stirred in a tube, and immediately thereafter, a chemiluminescence count was measured for ten seconds using a luminometer (Turner Designs TD-20/20, Sunnyvale, Calif.). H2O2 concentration was calculated by producing a standard curve after measuring the luminescence by a commercially available H2O2 solution (aqueous 30% H2O2 solution, Wako Pure Chemical Industry).

[3] = test system: NT cultured rice cells; experiment: Microarray analysis of elicitor-responsive genes, NT cultured rice cells; type: cell-based
From the text: as §1

[4] = test system: NT rice cells; experiment: Reactive oxygen production due to elicitors in NT cultured rice cells; type: cell-based, Oryza sativa L. cv. Nipponbare; details: (GlcNAc)8 100 ng/mL; FIG. 16
Experimental: (§2) Reactive oxygen production due to sugar elicitor treatment in NT and CEBiP-RNAi cultured rice cells was analyzed as follows: NT rice calli and CEBiP-RNAi rice calli were placed into 100 mL Erlenmeyer flasks containing 30 mL of N6 medium. After culturing at 27° C. for one week, the cells were strained, 0.6 mL of cells were transferred to 30 mL of fresh medium and cultured for another four days. 60 mg or 100 mg of each of the cultured cells were placed into a 2 mL tube, 1 mL of fresh N6 medium was added, and the cells were cultured overnight. (GlcNAc)8 (100 ng/mL), Pseudomonas aeruginosa-derived lipopolysaccharide (LPS, 50 μg/mL, Sigma), and (GlcNH2)7 (2 μg/mL) were used as elicitors. An elicitor was added to NT and CEBiP-RNAi cultured rice cells, treatment was carried out for 30 minutes or two hours, then 25 μL of the medium solution was sampled for reactive oxygen measurements. As a control, a same amount of distilled water (DW) was added, and similar treatments were carried out. Reactive oxygen was measured by adding 25 μL of the reacted solution, 400 μL of 50 mM potassium phosphate buffer (PK, pH 7.9), 25 μL of 1.1 mM luminol, and 50 μL of 14 mM potassium ferricyanide to a tube, mixing, then immediately measuring chemiluminescence counts for ten seconds in a luminometer (Turner Design TD-20/20, Sunnyvale, Calif.).

[5] = test system: CEBiP-RNAi rice cells; experiment: Reactive oxygen production due to elicitors in CEBiP-RNAi cultured rice cells; type: cell-based, Oryza sativa L. cv. Nipponbare; details: (GlcNH2)7 2 μg/mL
Experimental: as §2

[6] = test system: CEBiP gene expression; experiment: Effect of elicitor on CEBiP expression in cultured cells (FIG. 10); type: cell-based, rice
[7] = (GlcNAc)8-CEBiP-RNAi #6/CEBiP-RNAi #6 area, two hours
[8] = (GlcNAc)8 two hours vs water, CEBiP-RNAi #6 cells
[9] = CEBiP-RNAi #6 cells vs non-transformant
[10] = (GlcNAc)8-NT/NT area, two hours
[11] = (GlcNAc)8 two hours vs water, NT cultured rice cells

Compound: CC(=O)N[C@H]1[C@H](O[C@H]2[C@H](O)[C@@H](NC(C)=O)[C@H](O[C@H]3[C@H](O)[C@@H](NC(C)=O)[C@H](O[C@H]4[C@H](O)[C@@H](NC(C)=O)C(O)O[C@@H]4CO)O[C@@H]3CO)O[C@@H]2CO)O[C@H](CO)[C@@H](O[C@@H]2O[C@H](CO)[C@@H](O[C@@H]3O[C@H](CO)[C@@H](O[C@@H]4O[C@H](CO)[C@@H](O[C@@H]5O[C@H](CO)[C@@H](O)[C@H](O)[C@H]5NC(C)=O)[C@H](O)[C@H]4NC(C)=O)[C@H](O)[C@H]3NC(C)=O)[C@H](O)[C@H]2NC(C)=O)[C@@H]1O (stereo partly shown) [(GlcNAc)8]
- number of genes whose expression level decreased [1, 7]: 90 genes
- number of genes whose expression level increased [1, 7]: 361 genes
- FOLD INCREASE RNAi #6 AK058891 β-1.3 glucanase [1, 8]: 11.4 fold
- FOLD INCREASE RNAi #6 AK060582 Replication protein A1(Os-RPA1) [1, 8]: 2.8 fold
- FOLD INCREASE RNAi #6 AK060834 Calreticulin [1, 8]: 14.2 fold
- FOLD INCREASE RNAi #6 AK065812 Zea mays NADPH HC toxin reductase [1, 8]: 16.0 fold
- FOLD INCREASE RNAi #6 AK066784 Small GTP-binding protein (rab5A) [1, 8]: 2.5 fold
- FOLD INCREASE RNAi #6 AK067690 NAC Transcription factor [1, 8]: 3.4 fold
- FOLD INCREASE RNAi #6 AK068115 Harpin induced protein [1, 8]: 10.1 fold
- FOLD INCREASE RNAi #6 AK068993 PAL [1, 8]: 2.9 fold
- FOLD INCREASE RNAi #6 AK072235 Cysteine proteinase [1, 8]: 5.5 fold
- FOLD INCREASE RNAi #6 AK100959 beta-Expansin(EXPB3) [1, 8]: 5.4 fold
- FOLD INCREASE RNAi #6 AK102192 β-Galactosidase [1, 8]: 2.8 fold
- FOLD INCREASE RNAi #6 AK103094 Laccase [1, 8]: 2.1 fold
- FOLD INCREASE RNAi #6 AK103707 Ribosome inactivating protein 2 [1, 8]: 27.8 fold
- genes of the 746 increased in NT showing a suppression of two times or more [1, 9]: 45 genes
- genes of the 746 increased in NT showing suppression of two times or more or loss of elicitor responsiveness [1, 9]: 530 genes
- share of the 746 increased genes showing suppression of two times or more or loss of elicitor responsiveness [1, 9]: 71%
- genes of the 361 increased in CEBiP-RNAi #6 with increased expression levels compared to NT cells ([1]; elicitor treatment): one hundred
- genes whose expression level decreased with equivalent response in non-transformant and CEBiP-RNAi #6 rice cells ([1]; elicitor treatment): 44 genes
- genes whose expression level increased with equivalent response in non-transformant and CEBiP-RNAi #6 rice cells ([1]; elicitor treatment): 216 genes
- share of the 361 increased genes with increased expression levels compared to NT cells ([1]; elicitor treatment): approximately 28%
- genes decreased in NT showing suppression of two times or more or a loss in CEBiP-RNAi #6 ([1]; vs non-transformants): 176 genes
- share of genes decreased in NT showing suppression of two times or more or a loss in CEBiP-RNAi #6 ([1]; vs non-transformants): 80%
- production of reactive oxygen increase compared to the control [2]: 1.7 times
- number of genes whose expression level decreased [3, 10]: 220 genes
- number of genes whose expression level increased [3, 10]: 746 genes
- FOLD INCREASE NT* AK058296 1-aminocyclopropane-1-carboxylate oxidase [3, 11]: 6.6 fold
- FOLD INCREASE NT* AK058891 β-1.3 glucanase [3, 11]: 4.1 fold
- FOLD INCREASE NT* AK060423 Alanine:glyoxylate aminotransferase like protein [3, 11]: 11.2 fold
- FOLD INCREASE NT* AK060582 Replication protein A1(Os-RPA1) [3, 11]: 4.6 fold
- FOLD INCREASE NT* AK060625 GDSL-motif lipase/hydrolase [3, 11]: 6.4 fold
- FOLD INCREASE NT* AK060834 Calreticulin [3, 11]: 3.3 fold
- FOLD INCREASE NT* AK063651 Harpin induced protein [3, 11]: 24.7 fold
- FOLD INCREASE NT* AK066687 Shikimate kinase [3, 11]: 9.5 fold
- FOLD INCREASE NT* AK066784 Small GTP-binding protein (rab5A) [3, 11]: 2.1 fold
- FOLD INCREASE NT* AK067690 NAC Transcription factor [3, 11]: 2.4 fold
- FOLD INCREASE NT* AK068115 Harpin induced protein [3, 11]: 43.1 fold
- FOLD INCREASE NT* AK068993 PAL [3, 11]: 48.4 fold
- FOLD INCREASE NT* AK069456 Peroxidase [3, 11]: 10.9 fold
- FOLD INCREASE NT* AK071482 Caffeoyl-CoA 3-O-methyl-transferase [3, 11]: 11.3 fold
- FOLD INCREASE NT* AK071598 Lipid transfer protein [3, 11]: 10.0 fold
- FOLD INCREASE NT* AK072235 Cysteine proteinase [3, 11]: 4.3 fold
- FOLD INCREASE NT* AK073072 CEBiP [3, 11]: 2.6 fold
- FOLD INCREASE NT* AK100959 beta-Expansin(EXPB3) [3, 11]: 5.5 fold
- FOLD INCREASE NT* AK101431 Patatin-like protein [3, 11]: 19.6 fold
- FOLD INCREASE NT* AK102192 β-Galactosidase [3, 11]: 3.1 fold
- FOLD INCREASE NT* AK103094 Laccase [3, 11]: 10.0 fold
- FOLD INCREASE NT* AK105971 Pirin [3, 11]: 20.6 fold
- production of reactive oxygen in NT rice cells, LPS treatment in NT defined as 100% [4]: approximately 86.3%

Compound: N[C@H]1[C@H](O[C@H]2[C@H](O)[C@@H](N)[C@H](O[C@H]3[C@H](O)[C@@H](N)[C@H](O[C@H]4[C@H](O)[C@@H](N)[C@H](O[C@H]5[C@H](O)[C@@H](N)[C@H](O[C@H]6[C@H](O)[C@@H](N)[C@H](O[C@H]7[C@H](O)[C@@H](N)C(O)O[C@@H]7CO)O[C@@H]6CO)O[C@@H]5CO)O[C@@H]4CO)O[C@@H]3CO)O[C@@H]2CO)O[C@H](CO)[C@@H](O)[C@@H]1O (stereo partly shown) [(GlcNH2)7]
- reactive oxygen responsiveness in both CEBiP-RNAi lines [5]: Non-responsiveness

Compound: CC(=O)N[C@H]1[C@H](O[C@H]2[C@H](O)[C@@H](NC(C)=O)[C@H](O[C@H]3[C@H](O)[C@@H](NC(C)=O)[C@H](O[C@H]4[C@H](O)[C@@H](NC(C)=O)C(O)O[C@@H]4CO)O[C@@H]3CO)O[C@@H]2CO)O[C@H](CO)[C@@H](O[C@@H]2O[C@H](CO)[C@@H](O[C@@H]3O[C@H](CO)[C@@H](O[C@@H]4O[C@H](CO)[C@@H](O)[C@H](O)[C@H]4NC(C)=O)[C@H](O)[C@H]3NC(C)=O)[C@H](O)[C@H]2NC(C)=O)[C@@H]1O (stereo partly shown) [chitin oligosaccharide elicitor]
- induction of expression of the target gene (CEBiP) [6]: induce expression
